Structures can show the parent of a compound that is named as a salt.
Tests used:
Format in all cases: biochemical
JAK1 = biological target: T1, JAK1 (Homo sapiens, UniProt P23458); assay: JAK1 microfluidic kinase assay (Caliper EZ Reader II, FAM labeled peptide substrate); settings: IC50 JAK1 (5 nM) (1 m MATP), JAK1 5 nM, 1 mM ATP
T1 construct: purchased Carna Biosciences
Protocol: (§1) Compounds were tested against JAK1, JAK2, JAK2V617F and TYK2. Assay Formats: JAK activity was determined in the reaction buffer 50 mM HEPES, 0.01% Brij35, 10 mM MgCl2, 2 mM DTT by a microfluidic assay. The phosphorylation of a FAM labeled peptide substrate was monitored in the Caliper EZ Reader II (Perkin Elmer). The assay condition for each batch of enzyme (Carna Biosciences) was optimized to obtain 10% conversion rate of peptide substrate. The test compounds were dissolved in DMSO to a stock concentration of 10 mM. 3-fold serially diluted compounds with top concentration of 5 μM were pre-incubated with JAK1, JAK2, JAK2V617F or TYK2 at indicated concentrations for 10 min at ambient temperature. The final DMSO concentration of assay mixture was 1%. […] The reaction was stopped by adding 50 mM EDTA. […] The percent inhibition was calculated by the following formula. % Inhibition=(Conversionmax−Conversionsample)/(Conversionmax−Conversionmin)*100 • Conversionmax means the conversion rate in the positive well without addition of compound • Conversionmin means the conversion rate in the well without addition of enzyme • Conversionsample means the conversion rate of test compounds The dose-response (percent inhibition) curve was plotted and IC50 values were determined by GraphPad software.

JAK2V617F = biological target: T2, JAK2V617F (Homo sapiens, UniProt O60674, V617F); assay: JAK2V617F microfluidic kinase assay (Caliper EZ Reader II, FAM labeled peptide substrate); settings: JAK2V617F 2.5 nM, 1 mM ATP
T2 construct: purchased Carna Biosciences
Protocol: as §1

JAK2 = biological target: T3, JAK2 (Homo sapiens, UniProt O60674); assay: JAK2 microfluidic kinase assay (Caliper EZ Reader II, FAM labeled peptide substrate)
T3 construct: purchased Carna Biosciences
Protocol: as §1

[1] = IC50 JAK2 ([…]) (1 mM ATP), 1 mM ATP
[2] = IC50 JAK2 ([…]) (Km ATP), Km ATP

T1 sequence (P23458 whole entry): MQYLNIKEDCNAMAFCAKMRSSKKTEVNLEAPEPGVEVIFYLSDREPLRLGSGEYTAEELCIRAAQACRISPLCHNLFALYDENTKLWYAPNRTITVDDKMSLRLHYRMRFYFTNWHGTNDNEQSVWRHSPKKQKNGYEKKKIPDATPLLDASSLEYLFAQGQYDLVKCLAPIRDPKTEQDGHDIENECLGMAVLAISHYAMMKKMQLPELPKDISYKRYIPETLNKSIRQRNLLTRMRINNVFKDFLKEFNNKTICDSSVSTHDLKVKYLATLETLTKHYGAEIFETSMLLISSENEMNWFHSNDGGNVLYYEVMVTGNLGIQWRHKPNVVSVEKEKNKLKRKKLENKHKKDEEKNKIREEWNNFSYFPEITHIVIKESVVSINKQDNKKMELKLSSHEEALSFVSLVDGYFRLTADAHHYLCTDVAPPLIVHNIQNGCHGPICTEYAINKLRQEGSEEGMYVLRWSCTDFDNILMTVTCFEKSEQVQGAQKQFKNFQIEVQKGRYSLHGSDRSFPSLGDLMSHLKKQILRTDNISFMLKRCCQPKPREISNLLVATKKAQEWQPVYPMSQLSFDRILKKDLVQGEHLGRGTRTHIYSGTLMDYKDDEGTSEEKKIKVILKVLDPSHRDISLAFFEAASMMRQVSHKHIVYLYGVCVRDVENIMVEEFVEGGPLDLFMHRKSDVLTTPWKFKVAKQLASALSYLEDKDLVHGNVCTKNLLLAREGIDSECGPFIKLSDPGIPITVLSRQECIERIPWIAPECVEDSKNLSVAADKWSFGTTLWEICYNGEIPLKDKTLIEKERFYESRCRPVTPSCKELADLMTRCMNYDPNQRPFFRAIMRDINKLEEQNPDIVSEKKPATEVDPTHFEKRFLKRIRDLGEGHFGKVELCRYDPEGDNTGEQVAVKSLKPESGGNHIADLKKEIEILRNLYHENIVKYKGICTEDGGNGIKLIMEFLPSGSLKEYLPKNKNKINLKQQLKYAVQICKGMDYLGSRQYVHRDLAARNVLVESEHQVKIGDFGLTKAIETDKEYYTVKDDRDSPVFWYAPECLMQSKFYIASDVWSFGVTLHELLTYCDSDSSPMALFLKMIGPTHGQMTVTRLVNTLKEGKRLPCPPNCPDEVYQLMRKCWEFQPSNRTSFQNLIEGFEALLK
T3 sequence (O60674 whole entry): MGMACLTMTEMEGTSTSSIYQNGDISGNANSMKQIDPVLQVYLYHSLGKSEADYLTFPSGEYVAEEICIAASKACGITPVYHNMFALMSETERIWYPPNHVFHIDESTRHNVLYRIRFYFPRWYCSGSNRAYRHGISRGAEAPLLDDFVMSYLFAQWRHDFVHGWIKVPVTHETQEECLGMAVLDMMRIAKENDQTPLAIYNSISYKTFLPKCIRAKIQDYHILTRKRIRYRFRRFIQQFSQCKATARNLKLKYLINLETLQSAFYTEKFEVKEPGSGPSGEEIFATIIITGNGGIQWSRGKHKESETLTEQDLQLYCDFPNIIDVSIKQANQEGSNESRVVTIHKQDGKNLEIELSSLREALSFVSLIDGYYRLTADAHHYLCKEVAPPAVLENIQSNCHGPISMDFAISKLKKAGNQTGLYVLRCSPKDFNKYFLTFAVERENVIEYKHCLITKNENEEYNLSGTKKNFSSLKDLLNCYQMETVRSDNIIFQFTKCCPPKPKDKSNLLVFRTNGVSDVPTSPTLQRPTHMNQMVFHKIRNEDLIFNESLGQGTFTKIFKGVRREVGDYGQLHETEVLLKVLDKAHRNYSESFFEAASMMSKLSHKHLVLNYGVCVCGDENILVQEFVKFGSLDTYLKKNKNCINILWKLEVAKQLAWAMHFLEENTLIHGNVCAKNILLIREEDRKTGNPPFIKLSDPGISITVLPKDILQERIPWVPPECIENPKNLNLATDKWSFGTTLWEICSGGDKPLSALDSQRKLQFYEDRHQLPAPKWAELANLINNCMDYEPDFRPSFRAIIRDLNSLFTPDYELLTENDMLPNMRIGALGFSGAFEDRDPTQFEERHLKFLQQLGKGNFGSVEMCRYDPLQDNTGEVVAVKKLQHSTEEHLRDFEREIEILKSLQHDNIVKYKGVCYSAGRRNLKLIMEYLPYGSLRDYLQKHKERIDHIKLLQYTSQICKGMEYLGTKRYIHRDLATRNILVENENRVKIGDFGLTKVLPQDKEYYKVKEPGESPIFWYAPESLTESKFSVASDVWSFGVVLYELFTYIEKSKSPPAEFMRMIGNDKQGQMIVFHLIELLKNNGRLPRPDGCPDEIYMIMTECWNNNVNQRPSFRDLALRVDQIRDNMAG
T2 sequence (O60674 whole entry V617F): as the sequence (O60674 whole entry) above, with V617F counted along it

| Structure (SMILES) | IC50 (JAK1) [nM] | IC50 (JAK2V617F) [nM] | IC50 (JAK2; [1]) [nM] | IC50 (JAK2; [2]) [nM] |
| --- | --- | --- | --- | --- |
| Cc1cnc(Nc2cnn(C3CC(F)(F)C3)c2)nc1-c1ccc(C(=O)N[C@@H](C)C#N)cc1 [Example 155, (S)—N-(1-cyanoethyl)-4-(2-((1-(3,3-difluorocyclobutyl)-1H-pyrazol-4-yl)amino)-5-methylpyrimidin-4-yl)benzamide] | 480 | 1890 | – | – |
| N#CCNC(=O)c1ccc(-c2nc(Nc3cnn(C4CCN(C(=O)C5CC5)CC4)c3)ncc2C(F)(F)F)cc1 [Example 161, N-(cyanomethyl)-4-(2-((1-(1-(cyclopropanecarbonyl)piperidin-4-yl)-1H-pyrazol-4-yl)amino)-5-(trifluoromethyl)pyrimidin-4-yl)benzamide] | > 5000 | – | > 5000 | – |
| CC[C@@H](C#N)NC(=O)c1ccc(-c2nc(Nc3cnn(C)c3)ncc2Cl)cc1 [Example 220, (S)-4-(5-chloro-2-((1-methyl-1H-pyrazol-4-yl)amino)pyrimidin-4-yl)-N-(1-cyanopropyl)benzamide] | 16.2 | – | 70 | – |
| Cc1cnc(Nc2cnn(CC(F)F)c2)nc1-c1ccc(C(=O)NCC#N)cc1 [Example 27, N-(Cyanomethyl)-4-(2-((1-(2,2-difluoroethyl)-1H-pyrazol-4-yl)amino)-5-methylpyrimidin-4-yl)benzamide] | – | 104 | 50.2 | 1.97 |
| Cc1cnc(Nc2cnn(C3CCN(C(=O)C4CC4)CC3)c2)nc1-c1ccc(C(=O)N[C@@H](C)C#N)nc1 [Example 151, (S)—N-(1-cyanoethyl)-5-(2-((1-(1-(cyclopropanecarbonyl)piperidin-4-yl)-1H-pyrazol-4-yl)amino)-5-methylpyrimidin-4-yl)picolinamide] | 72.1 | – | 32.4 | – |
| Cn1cc(Nc2ncc(Cl)c(-c3ccc(C(=O)NCC4(C#N)CC4)cc3)n2)cn1 [Example 124] | 22 | – | 47.1 | – |
| Cc1cnc(Nc2cnn(C3CC(F)(F)C3)c2)nc1-c1ccc(C(=O)NCC#N)cc1 [Example 104, N-(cyanomethyl)-4-(2-((1-(3,3-difluorocyclobutyl)-1H-pyrazol-4-yl)amino)-5-methylpyrimidin-4-yl)benzamide] | 280 | – | 1150 | – |
| CC[C@@H](C#N)NC(=O)c1ccc(-c2nc(Nc3cnn(C)c3)ncc2C)cc1 [Example 219, (S)—N-(1-cyanopropyl)-4-(5-methyl-2-((1-methyl-1H-pyrazol-4-yl)amino)pyrimidin-4-yl)benzamide] | 5.53 | – | 42.5 | – |
| Cc1cnc(Nc2cnn(C)c2)nc1-c1ccc(C(=O)NCC2(O)CC2)cc1 [Example 32, N-((1-Hydroxycyclopropyl)methyl)-4-(5-methyl-2-((1-methyl-1H-pyrazol-4-yl)amino)pyrimidin-4-yl)benzamide] | 53 | – | 165 | 5.15 |
| Cc1cnc(Nc2cnn(C3CC(C)(C)OC(C)(C)C3)c2)nc1-c1ccc(C(=O)N[C@@H](C)C#N)c(F)c1 [Example 224, (S)—N-(1-Cyanoethyl)-2-fluoro-4-(5-methyl-2-((1-(2,2,6,6-tetramethyltetrahydro-2H-pyran-4-yl)-1H-pyrazol-4-yl)amino)pyrimidin-4-yl)benzamide] | 98.4 | – | 0.49 | – |
| [2H]c1c([2H])c(-c2nc(Nc3cnn(C4CC4)c3)ncc2Cl)c([2H])c([2H])c1C(=O)N[C@@H](C)C#N [Example 162, (S)-4-(5-chloro-2-((1-cyclopropyl-1H-pyrazol-4-yl)amino)pyrimidin-4-yl)-N-(1-cyanoethyl)benzamide-2,3,5,6-d4] | 4.61 | – | 1.12 | – |
| COC[C@@H](C#N)NC(=O)c1ccc(-c2nc(Nc3cnn(C4CC4)c3)ncc2C)cc1 [Example 187, (R)—N-(1-Cyano-2-methoxyethyl)-4-(2-((1-cyclopropyl-1H-pyrazol-4-yl)amino)-5-methylpyrimidin-4-yl)benzamide] | 5.77 | – | 13.7 | – |

The next lines start with the values.

| IC50 (JAK1) [nM] | IC50 (JAK2V617F) [nM] | IC50 (JAK2; [1]) [nM] | IC50 (JAK2; [2]) [nM] | Structure (SMILES) |
| --- | --- | --- | --- | --- |
| 1.5 | 42.6 | – | – | CC[C@@H](C#N)NC(=O)c1ccc(-c2nc(Nc3cnn(C4CC4)c3)ncc2C)cc1 [Example 193, (S)—N-(1-cyanopropyl)-4-(2-((1-cyclopropyl-1H-pyrazol-4-yl)amino)-5-methylpyrimidin-4-yl)benzamide] |
| 11.1 | 2.17 | – | – | Cc1cnc(Nc2cnn(C3CCC(F)(F)CC3)c2)nc1-c1ccc(C(=O)N[C@@H](C)C#N)cc1 [Example 85, (S)—N-(1-cyanoethyl)-4-(2-((1-(4,4-difluorocyclohexyl)-1H-pyrazol-4-yl)amino)-5-methylpyrimidin-4-yl)benzamide] |
| 300 | – | 202 | 7.53 | Cc1cnc(Nc2cnn(C3CCNCC3)c2)nc1-c1ccc(C(=O)NCC(N)=O)cc1 [Example 82, N-(2-amino-2-oxoethyl)-4-(5-methyl-2-((1-(piperidin-4-yl)-1H-pyrazol-4-yl)amino)pyrimidin-4-yl)benzamide hydrochloride] |
| – | 0.44 | – | – | Cc1cnc(Nc2cnn(C3CCN(C(=O)C4(O)CC4)CC3)c2)nc1-c1ccc(C(=O)N[C@@H](C)C#N)cc1 [Example 79, (S)—N-(1-Cyanoethyl)-4-(2-((1-(1-(1-hydroxycyclopropanecarbonyl)piperidin-4=yl)-1H-pyrazol-4-yl)amino)-5-methylpyrimidin-4-yl)benzamide] |
| 132 | – | 39.1 | – | C[C@@H](C#N)NC(=O)c1ccc(-c2nc(Nc3cnn(C4CCN(C(=O)C(C)(C)C)CC4)c3)ncc2F)cc1 [Example 57, (S)—N-(1-cyanoethyl)-4-(5-fluoro-2-((1-(1-pivaloylpiperidin-4-yl)-1H-pyrazol-4-yl)amino)pyrimidin-4-yl)benzamide] |
| 33.6 | – | 57.2 | 1.77 | Cc1cnc(Nc2cnn(C)c2)nc1-c1ccc(C(=O)NCCC#N)cc1 [Example 2, N-(2-Cyanoethyl)-4-(5-methyl-2-((1-methyl-1H-pyrazol-4-yl)amino)pyrimidin-4-yl)benzamide] |
| 10.7 | – | 0.86 | – | Cc1cnc(Nc2cnn(C3CCN(C(=O)C(C)(C)O)CC3)c2)nc1-c1ccc(C(=O)NC(C)C#N)cc1 (stereo in doubt) [Example 52, (S)—N-(1-cyanoethyl)-4-(2-((1-(1-(2-hydroxy-2-methylpropanoyl)piperidin-4-yl)-1H-pyrazol-4-yl)amino)-5-methylpyrimidin-4-yl)benzamide] |
| – | 114 | – | – | Cc1cnc(Nc2cnn(CC(C)(C)C#N)c2)nc1-c1ccc(C(=O)NCC(F)(F)F)cc1 [Example 81, 4-(2-((1-(2-Cyano-2-methylpropyl)-1H-pyrazol-4-yl)amino)-5-methylpyrimidin-4-yl)-N-(2,2,2-trifluoroethyl)benzamide] |
| 9.06 | – | 0.52 | – | CC[C@@H](C#N)NC(=O)c1ccc(-c2nc(Nc3cnn(C4CCC(O)CC4)c3)ncc2C)cc1 (stereo partly drawn) [Example 205, (S)—N-(1-cyanopropyl)-4-(2-((1-(4-hydroxycyclohexyl)-1H-pyrazol-4-yl)amino)-5-methylpyrimidin-4-yl)benzamide] |
| 253 | – | 114 | 3.6 | Cc1cnc(Nc2cnn(C3CCN(C)CC3)c2)nc1-c1ccc(C(=O)N2CC(C#N)C2)cc1 [Example 92, 1-(4-(5-Methyl-2-((1-(1-methylpiperidin-4-yl)-1H-pyrazol-4-yl)amino)pyrimidin-4-yl)benzoyl)azetidine-3-carbonitrile] |

From patent US12595253B2, “Benzamides of pyrazolylamino-pyrimidinyl derivatives, and compositions and methods thereof” (LYNK PHARMACEUTICALS CO. LTD., priority 2019, dated 2026)
